Results reported in ChEMBL document CHEMBL3091428, “Synthesis and initial biological evaluation of substituted 1-phenylamino-2-thio-4,5-dimethyl-1H-imidazole derivatives” (Bioorg Med Chem Lett, 2013).
Converted amounts (≈) assume the structure as drawn.

How the values were obtained:
SN12C = test: Cytotoxicity against human SN12C cells assessed as cell growth after 48 hrs by SRB assay relative to control; assay type: functional
ACHN = test: Cytotoxicity against human ACHN cells assessed as cell growth after 48 hrs by SRB assay relative to control; assay type: functional
A498 = test: Cytotoxicity against human A498 cells assessed as cell growth after 48 hrs by SRB assay relative to control; assay type: functional
SK-OV-3 = test: Cytotoxicity against human SKOV3 cells assessed as cell growth after 48 hrs by SRB assay relative to control; assay type: functional
[1] = Cytotoxicity against human NCI-ADR-RES cells assessed as cell growth after 48 hrs by SRB assay relative to control; assay type: functional
[2] = Cytotoxicity against human OVCAR5 cells assessed as cell growth after 48 hrs by SRB assay relative to control; assay type: functional, OVCAR-5
[3] = Cytotoxicity against human OVCAR4 cells assessed as cell growth after 48 hrs by SRB assay relative to control; assay type: functional, OVCAR-4
OVCAR-3 = test: Cytotoxicity against human OVCAR3 cells assessed as cell growth after 48 hrs by SRB assay relative to control; assay type: functional
UACC-62 = test: Cytotoxicity against human UACC62 cells assessed as cell growth after 48 hrs by SRB assay relative to control; assay type: functional
SK-MEL-5 = test: Cytotoxicity against human SK-MEL-5 cells assessed as cell growth after 48 hrs by SRB assay relative to control; assay type: functional
[4] = Cytotoxicity against human UACC257 cells assessed as cell growth after 48 hrs by SRB assay relative to control; assay type: functional, UACC-257
SK-MEL-28 = test: Cytotoxicity against human SK-MEL-28 cells assessed as cell growth after 48 hrs by SRB assay relative to control; assay type: functional
M14 = test: Cytotoxicity against human M14 cells assessed as cell growth after 48 hrs by SRB assay relative to control; assay type: functional
MDA-MB-435 = test: Cytotoxicity against human MDA-MB-435 cells assessed as cell growth after 48 hrs by SRB assay relative to control; assay type: functional
SNB-75 = test: Cytotoxicity against human SNB75 cells assessed as cell growth after 48 hrs by SRB assay relative to control; assay type: functional
U-251 = test: Cytotoxicity against human U251 cells assessed as cell growth after 48 hrs by SRB assay relative to control; assay type: functional
SF-539 = test: Cytotoxicity against human SF539 cells assessed as cell growth after 48 hrs by SRB assay relative to control; assay type: functional
SF-295 = test: Cytotoxicity against human SF295 cells assessed as cell growth after 48 hrs by SRB assay relative to control; assay type: functional
KM12 = test: Cytotoxicity against human KM12 cells assessed as cell growth after 48 hrs by SRB assay relative to control; assay type: functional
HCT-116 = test: Cytotoxicity against human HCT116 cells assessed as cell growth after 48 hrs by SRB assay relative to control; assay type: functional
HCT-15 = test: Cytotoxicity against human HCT15 cells assessed as cell growth after 48 hrs by SRB assay relative to control; assay type: functional
HCC 2998 = test: Cytotoxicity against human HCC2998 cells assessed as cell growth after 48 hrs by SRB assay relative to control; assay type: functional
COLO 205 = test: Cytotoxicity against human COLO205 cells assessed as cell growth after 48 hrs by SRB assay relative to control; assay type: functional
NCI-H522 = test: Cytotoxicity against human NCI-H522 cells assessed as cell growth after 48 hrs by SRB assay relative to control; assay type: functional
NCI-H460 = test: Cytotoxicity against human NCI-H460 cells assessed as cell growth after 48 hrs by SRB assay relative to control; assay type: functional
NCI-H322M = test: Cytotoxicity against human NCI-H322M cells assessed as cell growth after 48 hrs by SRB assay relative to control; assay type: functional
NCI-H23 = test: Cytotoxicity against human NCI-H23 cells assessed as cell growth after 48 hrs by SRB assay relative to control; assay type: functional
NCI-H226 = test: Cytotoxicity against human NCI-H226 cells assessed as cell growth after 48 hrs by SRB assay relative to control; assay type: functional
HOP-62 = test: Cytotoxicity against human HOP62 cells assessed as cell growth after 48 hrs by SRB assay relative to control; assay type: functional
SR = test: Cytotoxicity against human SR cells assessed as cell growth after 48 hrs by SRB assay relative to control; assay type: functional
RPMI-8226 = test: Cytotoxicity against human RPMI8226 cells assessed as cell growth after 48 hrs by SRB assay relative to control; assay type: functional
MOLT-4 = test: Cytotoxicity against human MOLT4 cells assessed as cell growth after 48 hrs by SRB assay relative to control; assay type: functional
K562 = test: Cytotoxicity against human K562 cells assessed as cell growth after 48 hrs by SRB assay relative to control; assay type: functional
CCRF-CEM = test: Cytotoxicity against human CCRF-CEM cells assessed as cell growth after 48 hrs by SRB assay relative to control; assay type: functional
Pichia kudriavzevii = test: Antimicrobial activity against Candida krusei ATCC 6258 after 24 hrs by broth microdilution method; assay type: functional; settings: ATCC 6258, 24 h
Nakaseomyces glabratus = test: Antimicrobial activity against Candida glabrata ATCC 90030 after 24 hrs by broth microdilution method; assay type: functional; settings: ATCC 90030, 24 h
Listeria monocytogenes = test: Antimicrobial activity against Listeria monocytogenes ATCC 19115 after 24 hrs by broth microdilution method; assay type: functional; settings: ATCC 19115, 24 h
Candida albicans = test: Antimicrobial activity against Candida albicans ATCC 90028 after 24 hrs by broth microdilution method; assay type: functional; settings: ATCC 90028, 24 h
Enterococcus faecalis [5] = test: Antimicrobial activity against Enterococcus faecalis ATCC 51299 after 24 hrs by broth microdilution method; assay type: functional; settings: ATCC 51299, 24 h
Enterococcus faecalis [6] = test: Antimicrobial activity against Enterococcus faecalis ATCC 29212 after 24 hrs by broth microdilution method; assay type: functional; settings: ATCC 29212, 24 h
Pseudomonas aeruginosa = test: Antimicrobial activity against Pseudomonas aeruginosa ATCC 27853 after 24 hrs by broth microdilution method; assay type: functional; settings: ATCC 27853, 24 h
Klebsiella pneumoniae = test: Antimicrobial activity against Klebsiella pneumoniae ATCC 13883 after 24 hrs by broth microdilution method; assay type: functional; settings: ATCC 13883, 24 h
Escherichia coli [7] = test: Antimicrobial activity against Escherichia coli ATCC 25922 after 24 hrs by broth microdilution method; assay type: functional; settings: ATCC 25922, 24 h
Escherichia coli [8] = test: Antimicrobial activity against Escherichia coli ATCC 35218 after 24 hrs by broth microdilution method; assay type: functional; settings: ATCC 35218, 24 h
T47D = test: Cytotoxicity against human T47D cells assessed as cell growth after 48 hrs by SRB assay relative to control; assay type: functional
MDA-MB-231 = test: Cytotoxicity against human MDA-MB-231 cells assessed as cell growth after 48 hrs by SRB assay relative to control; assay type: functional
[9] = Cytotoxicity against human Hs578T cells assessed as cell growth after 48 hrs by SRB assay relative to control; assay type: functional, Hs-578T
MCF7 = test: Cytotoxicity against human MCF7 cells assessed as cell growth after 48 hrs by SRB assay relative to control; assay type: functional

Work on `Cc1nc(SCC(=O)c2ccccc2)n(Nc2ccccc2)c1C` yielded an Activity (SN12C) of 99.9%, an Activity (ACHN) of 106.6% and an Activity (A498) of 91.12%. The Activity (SK-OV-3) was 97.79%, the Activity [1] was 96.87% and the Activity [2] was 109.7%. For the same compound, the Activity [3] was 105.2%, the Activity (OVCAR-3) was 109.4% and the Activity (UACC-62) was 102.6%. The Activity (SK-MEL-5) was 99.8%, the Activity [4] was 97.59% and the Activity (SK-MEL-28) was 110.7%. For the same compound, the Activity (M14) was 101.1%, the Activity (MDA-MB-435) was 97.36% and the Activity (SNB-75) was 108.2%. It also gave an Activity (U-251) of 97.26%, an Activity (SF-539) of 104.4% and an Activity (SF-295) of 86.98%. It also gave an Activity (KM12) of 104.6%, an Activity (HCT-116) of 86.93% and an Activity (HCT-15) of 99.3%. The Activity (HCC 2998) was 110.5%, the Activity (COLO 205) was 110.9% and the Activity (NCI-H522) was 81.35%. For the same compound, the Activity (NCI-H460) was 104.4%, the Activity (NCI-H322M) was 90.31% and the Activity (NCI-H23) was 93.43%. The Activity (NCI-H226) was 99.07%, the Activity (HOP-62) was 97.72% and the Activity (SR) was 82.35%. For the same compound, the Activity (RPMI-8226) was 102.2%, the Activity (MOLT-4) was 100.2% and the Activity (K562) was 89.68%. For the same compound, the Activity (CCRF-CEM) was 90.27%, the MIC (Pichia kudriavzevii) was 400 µg/mL (≈ 1190 µM) and the MIC (Nakaseomyces glabratus) was 800 µg/mL (≈ 2370 µM). For the same compound, the MIC (Listeria monocytogenes) was 800 µg/mL (≈ 2370 µM), the MIC (Candida albicans) was 400 µg/mL (≈ 1190 µM) and the MIC (Enterococcus faecalis [5]) was 800 µg/mL (≈ 2370 µM). The MIC (Enterococcus faecalis [6]) was 800 µg/mL (≈ 2370 µM), the MIC (Pseudomonas aeruginosa) was 200 µg/mL (≈ 593 µM) and the MIC (Klebsiella pneumoniae) was 800 µg/mL (≈ 2370 µM). It also gave an MIC (Escherichia coli [7]) of 800 µg/mL (≈ 2370 µM), an MIC (Escherichia coli [8]) of 800 µg/mL (≈ 2370 µM) and an Activity (T47D) of 85.54%. The Activity (MDA-MB-231) was 98.84%, the Activity [9] was 108% and the Activity (MCF7) was 96.9%.
